In ChEMBL document CHEMBL5046281, “N-Aryl Mercaptopropionamides as Broad-Spectrum Inhibitors of Metallo-β-Lactamases” (J Med Chem, 2022):
pIC50: −log10 of the molar value. The source made the active and inactive calls. The calls are words filed in the database; no cut-off is given here.

Assays:
Escherichia coli [1] = assay: Potentiation of imipenem-induced antibacterial activity against NDM-5 producing Escherichia coli T2351 clinical isolates assessed as imipenem MIC at 128 mg/l by microdilution method; format: functional
Escherichia coli [2] = assay: Antibacterial activity against VIM-1 expressing Escherichia coli isolates assessed as inhibition of bacterial growth by microdilution method; format: functional, organism-based
Escherichia coli [3] = assay: Potentiation of imipenem-induced antibacterial activity against NDM-1 producing Escherichia coli assessed as fold change in imipenem MIC at 32 ug/ml by microdilution method; format: functional; details: dose 32 µg/ml
BlaVIM-1 = BlaVIM-1 (Escherichia coli, UniProt Q8GDC1); assay: Inhibition of Escherichia coli VIM-1 using fluorocillin as substrate incubated for 30 mins by fluorescence based assay
[4] = Selectivity ratio of MIC for antibacterial activity against NDM-7 producing Escherichia coli T2239 clinical isolates to MIC for potentiation of imipenem-induced antibacterial activity against NDM-7 producing Escherichia coli T2239 clinical isolates assessed as imipenem MIC at 128 mg/l; format: functional
Enterobacter cloacae [5] = assay: Potentiation of imipenem-induced antibacterial activity against NDM-1 producing Enterobacter cloacae T2311 clinical isolates assessed as imipenem MIC at 128 mg/l by microdilution method; format: functional
[6] = target: T1, Interstitial collagenase (Homo sapiens) (UniProt P03956); assay: Inhibition of human MMP-1 at 100 uM relative to control
T1 sequence (whole entry): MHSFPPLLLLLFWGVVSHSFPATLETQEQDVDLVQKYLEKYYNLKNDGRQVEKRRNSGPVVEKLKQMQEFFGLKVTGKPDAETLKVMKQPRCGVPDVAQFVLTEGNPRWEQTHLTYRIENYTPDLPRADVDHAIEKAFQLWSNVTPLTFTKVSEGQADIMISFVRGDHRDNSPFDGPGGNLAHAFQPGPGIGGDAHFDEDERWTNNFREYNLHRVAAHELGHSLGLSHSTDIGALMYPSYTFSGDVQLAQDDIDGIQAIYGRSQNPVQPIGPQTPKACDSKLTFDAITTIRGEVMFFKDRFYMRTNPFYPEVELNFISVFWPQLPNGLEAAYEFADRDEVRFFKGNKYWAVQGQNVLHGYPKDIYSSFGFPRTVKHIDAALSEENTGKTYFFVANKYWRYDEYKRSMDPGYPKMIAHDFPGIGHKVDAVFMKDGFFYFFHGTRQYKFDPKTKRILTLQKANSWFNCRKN

[7] = Selectivity ratio of MIC for antibacterial activity against NDM-1 producing Serratia marcescens T2352 clinical isolates to MIC for potentiation of imipenem-induced antibacterial activity against NDM-1 producing Serratia marcescens T2352 clinical isolates assessed as imipenem MIC at 128 mg/l; format: functional
[8] = Lipophilicity, log D of the compound at pH 7.4 by HPLC-MS analysis; format: physicochemical; details: buffer
Enterobacter cloacae [9] = assay: Potentiation of imipenem-induced antibacterial activity against GIM-1 producing Enterobacter cloacae T2218 clinical isolates assessed as imipenem MIC at 128 mg/l by microdilution method; format: functional
[10] = target: T2, Matrilysin (Homo sapiens) (UniProt P09237); assay: Inhibition of human MMP-7 at 100 uM relative to control
T2 sequence (whole entry): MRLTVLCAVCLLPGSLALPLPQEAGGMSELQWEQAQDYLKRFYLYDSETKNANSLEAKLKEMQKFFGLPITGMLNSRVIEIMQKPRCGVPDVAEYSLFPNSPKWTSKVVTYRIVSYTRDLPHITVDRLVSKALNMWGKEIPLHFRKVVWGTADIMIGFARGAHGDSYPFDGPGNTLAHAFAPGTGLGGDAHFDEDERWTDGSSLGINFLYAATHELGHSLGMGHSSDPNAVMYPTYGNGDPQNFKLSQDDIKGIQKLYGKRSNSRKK

Klebsiella pneumoniae [11] = assay: Antibacterial activity against imipenem-resistant NDM-1-producing Klebsiella pneumoniae T2301 infected in Galleria mellonella larvae assessed as survival rate at 38.4 ug injected via proleg measured after 1 day by Kaplan-Meier method; format: functional; details: dose 38.4 µg
Klebsiella pneumoniae [12] = assay: Antibacterial activity against imipenem-resistant NDM-1-producing Klebsiella pneumoniae T2301 at 128 mg/L measured after 24 hrs by time-kill assay; format: functional, organism-based
[13] = target: 72 kDa type IV collagenase (Homo sapiens, UniProt P08253); assay: Inhibition of human MMP-2 at 100 uM relative to control
Escherichia coli [14] = assay: Potentiation of imipenem-induced antibacterial activity against NDM-1 producing Escherichia coli assessed as imipenem MIC at 64 ug/ml by microdilution method (reference value: 128 ug/ml); format: functional; details: dose 64 µg/ml
HEK293 = assay: Cytotoxicity against human HEK293 cells assessed as reduction in cell viability at 100 uM relative to control; format: toxicity, cell-based; details: hek293, 100 µM
Enterobacter cloacae [15] = assay: Potentiation of imipenem-induced antibacterial activity against VIM-1 producing Enterobacter cloacae T2353 clinical isolates assessed as imipenem MIC at 128 mg/l by microdilution method; format: functional
Escherichia coli [16] = assay: Potentiation of imipenem-induced antibacterial activity against NDM-1 producing Escherichia coli assessed as fold change in imipenem MIC at 64 ug/ml by microdilution method; format: functional; details: dose 64 µg/ml
A549 = assay: Cytotoxicity against human A549 cells assessed as reduction in cell viability at 100 uM relative to control; format: toxicity, cell-based; details: a549, 100 µM
[17] = Selectivity ratio of MIC for antibacterial activity against GIM-1 producing Enterobacter cloacae T2218 clinical isolates to MIC for potentiation of imipenem-induced antibacterial activity against GIM-1 producing Enterobacter cloacae T2218 clinical isolates assessed as imipenem MIC at 128 mg/l; format: functional
Escherichia coli [18] = assay: Potentiation of imipenem-induced antibacterial activity against NDM-1 producing Escherichia coli assessed as fold change in imipenem MIC at 4 ug/ml by microdilution method; format: functional; details: dose 4 µg/ml
[19] = Selectivity ratio of MIC for antibacterial activity against OXA-23 producing Acinetobacter baumannii T2434 clinical isolates to MIC for potentiation of imipenem-induced antibacterial activity against OXA-23 producing Acinetobacter baumannii T2434 clinical isolates assessed as imipenem MIC at 128 mg/l; format: functional
Escherichia coli [20] = assay: Potentiation of imipenem-induced antibacterial activity against NDM-1 producing Escherichia coli assessed as imipenem MIC at 128 ug/ml by microdilution method (reference value: 128 ug/ml); format: functional; details: dose 128 µg/ml
[21] = target: Disintegrin and metalloproteinase domain-containing protein 17 (Homo sapiens) (UniProt P78536); assay: Inhibition of human TACE at 100 uM relative to control
Pseudomonas aeruginosa = assay: Potentiation of imipenem-induced antibacterial activity against VIM-1 producing Pseudomonas aeruginosa T2357 clinical isolates assessed as imipenem MIC at 128 mg/l by microdilution method; format: functional
[22] = target: Neutrophil collagenase (Homo sapiens) (UniProt P22894); assay: Inhibition of human MMP-8 at 100 uM relative to control
Sequence of Neutrophil collagenase (Homo sapiens) (P22894 101-467 limits assumed): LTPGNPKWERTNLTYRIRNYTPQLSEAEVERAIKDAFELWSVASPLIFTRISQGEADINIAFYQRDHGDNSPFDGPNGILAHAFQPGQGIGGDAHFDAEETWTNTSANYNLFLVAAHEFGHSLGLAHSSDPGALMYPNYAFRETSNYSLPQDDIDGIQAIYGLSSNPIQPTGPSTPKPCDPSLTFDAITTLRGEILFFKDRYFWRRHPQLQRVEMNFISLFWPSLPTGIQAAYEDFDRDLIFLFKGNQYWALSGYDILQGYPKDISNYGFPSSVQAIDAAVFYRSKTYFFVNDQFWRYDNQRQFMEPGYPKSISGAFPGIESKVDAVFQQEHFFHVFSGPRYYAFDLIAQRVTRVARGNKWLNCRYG

Sequence of 72 kDa type IV collagenase (P08253 110-660 limits assumed): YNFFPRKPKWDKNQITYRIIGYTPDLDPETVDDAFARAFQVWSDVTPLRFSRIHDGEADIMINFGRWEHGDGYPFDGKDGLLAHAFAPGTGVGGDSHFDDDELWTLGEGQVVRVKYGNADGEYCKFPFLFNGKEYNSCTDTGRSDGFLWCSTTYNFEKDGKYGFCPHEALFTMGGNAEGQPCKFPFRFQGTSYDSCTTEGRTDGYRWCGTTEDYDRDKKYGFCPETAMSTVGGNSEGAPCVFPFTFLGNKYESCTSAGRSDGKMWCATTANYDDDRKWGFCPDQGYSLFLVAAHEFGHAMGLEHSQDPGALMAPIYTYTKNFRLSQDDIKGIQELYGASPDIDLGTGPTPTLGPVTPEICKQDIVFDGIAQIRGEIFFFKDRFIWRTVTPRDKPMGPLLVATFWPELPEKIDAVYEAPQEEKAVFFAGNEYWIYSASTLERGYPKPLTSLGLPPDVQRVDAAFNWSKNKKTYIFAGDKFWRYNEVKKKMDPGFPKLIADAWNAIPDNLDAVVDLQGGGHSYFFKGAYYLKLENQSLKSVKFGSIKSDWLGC
Sequence of Disintegrin and metalloproteinase domain-containing protein 17 (Homo sapiens) (P78536 whole entry, the tested form may be a part): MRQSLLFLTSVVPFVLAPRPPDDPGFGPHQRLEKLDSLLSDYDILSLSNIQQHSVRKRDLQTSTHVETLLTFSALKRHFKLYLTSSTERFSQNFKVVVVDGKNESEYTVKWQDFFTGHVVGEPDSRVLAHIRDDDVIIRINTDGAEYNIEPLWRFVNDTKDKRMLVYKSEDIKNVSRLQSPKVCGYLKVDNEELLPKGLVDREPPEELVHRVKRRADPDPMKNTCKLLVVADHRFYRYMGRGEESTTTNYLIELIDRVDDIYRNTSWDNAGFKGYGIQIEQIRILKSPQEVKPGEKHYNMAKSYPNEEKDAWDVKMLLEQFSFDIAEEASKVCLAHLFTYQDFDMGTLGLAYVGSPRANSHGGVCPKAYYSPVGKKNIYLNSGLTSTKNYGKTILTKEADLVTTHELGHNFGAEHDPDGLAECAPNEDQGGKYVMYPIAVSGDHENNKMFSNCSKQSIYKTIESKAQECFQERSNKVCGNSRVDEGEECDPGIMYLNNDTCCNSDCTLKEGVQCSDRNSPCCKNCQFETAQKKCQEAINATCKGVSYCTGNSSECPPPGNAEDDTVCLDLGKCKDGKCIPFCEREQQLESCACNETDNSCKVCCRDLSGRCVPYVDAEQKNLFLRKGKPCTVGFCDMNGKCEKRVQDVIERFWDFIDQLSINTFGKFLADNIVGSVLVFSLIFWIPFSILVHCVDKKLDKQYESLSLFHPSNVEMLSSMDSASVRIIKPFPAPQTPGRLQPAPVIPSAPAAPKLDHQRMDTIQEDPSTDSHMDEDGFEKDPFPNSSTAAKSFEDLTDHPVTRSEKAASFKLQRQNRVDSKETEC

Compound: O=C(CCS)Nc1cccc(C(=O)O)c1
- MIC (Escherichia coli [1]): 2 µg/mL
- Activity (Escherichia coli [2]): inactive
- fold change (FC) (Escherichia coli [3]): 16
- pIC50 (BlaVIM-1): 5.92
- Ratio [4]: 16
- MIC (Enterobacter cloacae [5]): 1 µg/mL
- inhibition [6]: < 10%
- Ratio [7]: 64
- logD [8]: -0.96
- MIC (Enterobacter cloacae [9]): 2 µg/mL
- inhibition [10]: < 10%
- Activity (Klebsiella pneumoniae [11]): <20%
- Activity (Klebsiella pneumoniae [12]): inactive
- inhibition [13]: < 10%
- MIC (Escherichia coli [14]): 2 µg/mL
- Activity (HEK293): < 10%
- MIC (Enterobacter cloacae [15]): 2 µg/mL
- fold change (FC) (Escherichia coli [16]): 64
- Activity (A549): < 10%
- Ratio [17]: 1
- fold change (FC) (Escherichia coli [18]): 1
- Ratio [19]: 1
- MIC (Escherichia coli [20]): ≤ 0.5 µg/mL
- inhibition [21]: < 10%
- MIC (Pseudomonas aeruginosa): 256 µg/mL
- inhibition [22]: < 10%
